Results on nine molecules are retold here after patent EP2873675A1, “Peptide-based peroxidase inhibitors and methods of using same” (The Medical College of Wisconsin, Inc., priority 2013, dated 2015).

Series [1] relates to MPO. The experiment in a line: MPO-catalyzed HOCl production (taurine/TMB assay). The note with it: for MPO-catalyzed HOCl production, dose-dependent effects: increasing concentrations. It counts as biochemical. Here is the method:
(§1) MPO-mediated HOCl Production. MPO (20 nM) was incubated with H2O2 (50 µM), NaCl (150 mM), taurine (5 mM) and increasing concentrations of KYC in phosphate buffer (100 mM, pH 7.4) which also contained diethylene triamine pentaacetic acid (DTPA, 100 µM) to prevent non-specific, divalent metal cation oxidation for 30 min. Reactions were halted by addition of catalase. Chlorotaurine was quantified using the 3,3-,5,5-tetramethylbenzidine (TMB) assay. Briefly, 400 µL of reaction solution was mixed with 100 µL of 2 mM TMB, 100 µM NaI containing 10% dimethylformamide (DMF) in 400 mM acetate buffer (pH 5.4). After 5 min, absorbance (650 nm) was recorded on a UV/Vis spectrophotometer (Agilent Model 8453).
(§2) MPO-catalyzed HOCl Production: MPO (20 nM) was incubated with H2O2 (50 µM), NaCl (150 mM), taurine (5 mM) and increasing concentrations of KYC in a phosphate buffer (100 mM, pH 7.4) containing diethylene triamine pentaacetic acid (DTPA, 100 µM) to prevent non-specific, divalent metal cation oxidation for 30 min. Reactions were halted by addition of catalase (2,000 units/mL). Chlorotaurine was quantified using the TMB assay (66). Briefly, 400 µL of reaction solution was mixed with 100 µL of 2 mM TMB, 100 µM NaI containing 10% dimethylformamide (DMF) in 400 mM acetate buffer (pH 5.4). After 5 min, absorbance (650 nm) was recorded on a UV/Vis spectrophotometer (Agilent Model 8453).

Series [2] addresses T1, MPO (Homo sapiens, UniProt P05164).
T1 construct: purchased Lee Biosolutions (St. Louis, MO)
T1 sequence (P05164 49-745): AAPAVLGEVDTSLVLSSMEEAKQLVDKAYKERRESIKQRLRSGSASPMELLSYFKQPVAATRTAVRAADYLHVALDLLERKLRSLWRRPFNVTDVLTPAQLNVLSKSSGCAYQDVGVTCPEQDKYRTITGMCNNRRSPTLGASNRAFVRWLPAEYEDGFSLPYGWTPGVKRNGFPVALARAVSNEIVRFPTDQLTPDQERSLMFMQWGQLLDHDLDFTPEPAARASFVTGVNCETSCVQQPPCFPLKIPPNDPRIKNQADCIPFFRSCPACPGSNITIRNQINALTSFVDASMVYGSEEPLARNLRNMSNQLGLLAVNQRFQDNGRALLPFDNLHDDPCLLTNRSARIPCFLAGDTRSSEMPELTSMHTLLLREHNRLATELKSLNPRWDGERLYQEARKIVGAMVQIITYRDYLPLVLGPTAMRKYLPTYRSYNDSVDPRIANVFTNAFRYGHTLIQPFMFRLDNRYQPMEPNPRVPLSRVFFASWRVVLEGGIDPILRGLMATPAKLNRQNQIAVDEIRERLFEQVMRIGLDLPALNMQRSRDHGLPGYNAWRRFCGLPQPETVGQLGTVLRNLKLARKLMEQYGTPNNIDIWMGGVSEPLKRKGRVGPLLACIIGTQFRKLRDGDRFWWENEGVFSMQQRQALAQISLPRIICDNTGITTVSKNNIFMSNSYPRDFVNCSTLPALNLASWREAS
The experiment in a line: MPO-mediated LDL oxidation (conjugated diene formation, absorbance at 234 nm). It counts as biochemical. The note with it: 25 µM; for MPO/H2O2/nitrite-mediated LDL oxidation: H2O2 100 µM, NaNO2 100 µM, MPO 20 nM; for MPO/H2O2-mediated LDL oxidation: in the absence of nitrite. As for the experimental part:
(§3) MPO-mediated oxidation of LDL. Reaction mixtures contained LDL (0.15 mg/ml), NaNO2 (100 µM), H2O2 (300 µM), MPO (20 nM) and various concentrations of KYC in a potassium phosphate buffer (100 mM, pH 7.4) containing DTPA (100 µM). LDL oxidation was monitored at 234 nm at room temperature on a HP UV/VIS spectrometer. Absorbance traces represent the average of duplicate experiments.
(§4) MPO-mediated LDL Oxidation. Reaction mixtures contained LDL (0.15 mg/mL), NaNO2 (100 µM), H2O2 (100 µM), MPO (20 nM) and increasing concentrations of KYC in a phosphate buffer (100 mM, pH 7.4) containing DTPA (100 µM). Rates of LDL oxidation were monitored at room temperature at 234 nm, the wavelength maximum for conjugated dienes.
(§5) MPO-mediated LDL Conjugated Diene Formation: Reaction mixtures contained LDL (0.15 mg/mL), NaNO2 (100 µM), H2O2 (100 µM), MPO (20 nM) and increasing concentrations of KYC or equimolar concentrations of various compounds in a phosphate buffer (100 mM, pH 7.4) containing DTPA (100 µM). Rates of LDL conjugated diene formation were determined by following changes in absorbance at 234 nm, the wavelength maximum for conjugated dienes, on a UV-Vis spectrophotometer (Agilent Model 8453) at room temperature.

The test system of series [3] is SS/Mcw rat hearts. Kind of series: Ischemia/reperfusion injury in isolated perfused hearts (Langendorff). An excerpt: Ischemia/Reperfusion (I/R) Injury in Isolated Hearts. Rats used in this study received humane care in compliance with the Guide for the Care and Use of Laboratory Animals, by the National Research Council. Rats were maintained on a low salt (0.4% NaCl) diet with unlimited access to water. Environmental influences were minimized by maintaining rats in identical housing conditions. Dahl S (SS/Mcw male rats at 8 weeks of age were used for this study.
Modified Krebs-Henseleit bicarbonate buffer was prepared containing the following components (in mM): 118.5 NaCl, 25.0 NaHCO3, 4.8 KCl, 1.2 MgSO4·6H2O, and 1.2 KH2PO4 (pH 7.4 when gassed with 95% O2-5% CO2) in which the calcium content was 1.8. Glucose (11.1 mM) was added to the perfusate. Before use, all perfusion fluids were filtered through cellulose acetate membranes with a pore size of 5 µm. To this perfusate, drugs (KAA, KYC) were added as needed. Animals were weighed, and heparin was administered intraperitoneally based on weight (150 IU/kg). Anesthesia was induced with pentobarbital sodium (30 mg/kg ip). Once adequate anesthesia was obtained, the abdomen was opened, and the diaphragm was separated from its chest wall attachments and the pericardium opened. The aorta was clamped and the heart excised. The heart was then immediately transferred to the Langendorff apparatus, and the aorta was cannulated and secured using silk ties. Coronary arteries were perfused at constant pressure (80 mmHg) in a retrograde fashion with Krebs buffer. The heart was immersed in a bath containing Krebs buffer at 37.2 +/- 0.1°C to maintain conditions of normothermia. Left ventricular pressure (LVP) was measured isovolumetrically with a transducer connected to a thin, saline-filled latex balloon inserted into the left ventricle through the mitral valve from an incision in the left atrium.
Drug perfusion. After steady-state levels of function were reached, hearts were perfused with HZ2 (Ac-KYC-NH2) or HZ3 (Ac-KWC-NH2) at 50mg/L for 40 min prior to 35 min global ischemia and 2 hour reperfusion. The protocol for perfusing isolated hearts with or without KWC or scramble peptide KAA is described in Fig. 5A.

Series [4] relates to NADPH oxidase (NOX). The experiment in a line: PMA-stimulated HL-60 cell superoxide formation (SOD-inhibitable cytochrome C reduction). Type of series: cell-based, human. The note with it: cytochrome C assay. Here is the method: PMA-induced Superoxide Anion Formation. HL-60 cells were cultured in RPMI 1640 medium containing 10 % FCS (passage 20-50). HL-60 cells were harvested by centrifugation (1000 rpm, 10 min), washed 2X with phosphate buffer (10 mM, pH 7.4) with NaCl (138 mM), KCl (2.67 mM), CaCl2 (0.901 mM), MgCl2 (0.493 mM) and glucose (1mg/ml) to remove culture medium. The HL-60 cells (6 x10^6/0.5ml) were re-suspended in DPBS. After stimulation with PMA (10 µM), the HL-60 cells were incubated with cytochrome C (40 µM) with or without superoxide dismutase at 37°C for 30 min. The reaction was stopped by centrifugation. Cytochrome C reduction was measured at 550 nm on a UV-Vis spectrophotometer (Agilent, Model 8453).
PMA-stimulated HL-60 cell O2^•- Formation: HL-60 cells were harvested by centrifugation (1000 rpm, 10 min), washed twice with DPBS with glucose to remove culture medium. The HL-60 cells (1.2 x10^7/ml) were re-suspended in DPBS with glucose. After stimulation with PMA (10 µM), the HL-60 cells were incubated with cytochrome C (40 µM) with or without superoxide dismutase (500 units/mL) at 37 °C for 10 min and then the HL-60 cells were removed by centrifugation. Cytochrome C reduction in supernatants was measured at 550 nm using a UV-Vis spectrophotometer (Agilent, Model 8453).

Series [5] is described as follows: Thiol reduction of KYC disulfide (HPLC). It counts as physicochemical. An excerpt:
To confirm that KYC oxidation by MPO yields a simple disulfide, we reduced the product using simple thiols such as glutathione (GSH) and dithiothreitol (DTT).

Series [6] concerns the target T1, MPO. The experiment in a line: MPO-catalyzed HOCl production (taurine/TMB assay). Type of series: biochemical. As to conditions: 12.5 µM. As for the experimental part:
as §1, §2

Series [7] relates to hypertensive rats. As to conditions: large doses; cited from earlier work.
Series [8] concerns MPO. The experiment in a line: MPO-mediated LDL oxidation (conjugated diene formation, absorbance at 234 nm). It counts as biochemical. As to conditions: 25 µM; H2O2 100 µM, NaNO2 100 µM, MPO 20 nM. As for the experimental part: as §3, §4, §5

Entries after “also recorded” stand apart in the source; their conditions may differ. Positions of bridges follow the written chain, without caps; N, C: chain ends. Non-standard residues stand in square brackets, D forms with d. Residues, ends and D or L forms follow the SMILES beside them. Chains are numbered I, II in the order given. Some results are limits rather than exact numbers.

Turning to `CC(=O)N[C@H](CCCCN)C(=O)N[C@H](Cc1ccc(O)cc1)C(=O)N[C@H](CS)C(N)=O` [Ac-(d)K(d)Y(d)C-amide] (Ac-[dK]-[dY]-[dC]-NH2), the “MPO-catalyzed HOCl production, comparison at equimolar concentration” value in series [1] (12.5 µM) was “less effective than KYC”.

For the molecule `N[C@@H](CCC(=O)N[C@@H](CS)C(=O)NCC(=O)O)C(=O)O` [GSH, glutathione], in series [2], the “MPO/H2O2/nitrite-mediated LDL oxidation” value is “ineffective for inhibiting LDL oxidation” and the “MPO/H2O2-mediated LDL oxidation” value was “inhibited LDL oxidation; also recorded: did not increase LDL oxidation”.

Take `CC(=O)N[C@@H](CCCCN)C(=O)N[C@@H](Cc1c[nH]c2ccccc12)C(=O)N[C@@H](CS)C(N)=O` [KWC, Ac-KWC-amide] (Ac-Lys-Trp-Cys-NH2): the “percent recovery of LVDP after I/R injury” value in series [3] (perfusion 40 min prior to 35 min global ischemia and 2 hour reperfusion, untreated 37.1±4.3) is recorded as 55.3±4.1%. Also, the “left ventricular developed pressure (LVDP) after I/R injury” value in series [3] (perfusion 40 min prior to 35 min global ischemia and 2 hour reperfusion, untreated 38±3.9) is reported as 57.3±4.8 mmHg. For the same molecule, in series [3] (prior to ischemia), the “increase of coronary flow rates after perfusion into the hearts” value is “more than 20%”. In series [3] (untreated control 49.6±3.4, p<0.05), the “percent recovery of coronary flow rates after I/R” value is reported as 65.2±4%.

For the molecule `CC(=O)N[C@@H](CCCCN)C(=O)N[C@@H](Cc1ccc(O)cc1)C(=O)N[C@@H](CSSC[C@H](NC(=O)[C@H](Cc1ccc(O)cc1)NC(=O)[C@H](CCCCN)NC(C)=O)C(N)=O)C(N)=O` [KYC disulfide] (I: Ac-Lys-Tyr-Cys-NH2 / II: Ac-Lys-Tyr-Cys-NH2; disulfide I:3-II:3), the “O2•- production in PMA-stimulated HL-60 cells” value in series [4] was “neither KYC nor KYC disulfide have any significant effect; also recorded: Neither KYC nor KYC disulfide had any significant effect”. For the same molecule, in series [5] (10 mM GSH, 120 min), the “reduction to KYC monomer by GSH” value is on record as “completely reduced”. In series [5] (DTT 0.5 mM, room temperature), the “time to complete reduction to KYC monomer by DTT” value is given as not above 5 min.

Turning to `N[C@@H](Cc1c[nH]c2ccccc12)C(=O)O` [Trp, tryptophan], in series [2], the “MPO/H2O2/nitrite-mediated LDL oxidation” value is listed as “did not inhibit but actually enhanced LDL oxidation” and the “MPO/H2O2-mediated LDL oxidation” value is given as “increased MPO-mediated LDL oxidation”. The “MPO-catalyzed HOCl production, comparison at equimolar concentration” value in series [6] was “effective inhibitor”.

`N[C@@H](Cc1ccc(O)cc1)C(=O)O` [Tyr, tyrosine]: in series [2], the “MPO/H2O2/nitrite-mediated LDL oxidation” value was “accelerated and enhanced LDL oxidation”; the “MPO/H2O2-mediated LDL oxidation” value is listed as “increased MPO-mediated LDL oxidation”. Moreover, the “MPO-catalyzed HOCl production, comparison at equimolar concentration” value in series [6] is reported as “little, if any effect”. Besides, in series [6] (listed as Tyrosine), the “MPO-catalyzed HOCl production, comparison at equimolar concentration” value is “little if any effect”.

Take `COc1ccc2[nH]cc(CCNC(C)=O)c2c1` [melatonin]: the “number of apoptotic cells in the vessel wall” value in series [7] was “increased the number of apoptotic cells in the vessel wall”.

On to “N-acetyl Lysylphenylalanylcysteine amid [KFC]”, for which the “MPO/H2O2/nitrite-mediated LDL oxidation” value in series [8] was “increased the lag phase and delayed, but did not totally inhibit LDL oxidation”. Also, the “reduction of HOCl detected by the taurine/TMB assay” value in series [1] (25 µM) turned out to be 35%. The “MPO-catalyzed HOCl production, dose-dependent effects” value in series [1] is listed as “weaker inhibitor of HOCl formation”.

On to “N-acetyl Lysyltyrosylcyeteine amide [KYS]”, for which the “MPO/H2O2/nitrite-mediated LDL oxidation” value in series [8] is on record as “accelerated LDL oxidation”. Also, in series [1], the “MPO-catalyzed HOCl production, dose-dependent effects” value is listed as “failed to inhibit; also recorded: not an inhibitor”.
